Measured values reported in patent publication US8754049B2, “Organic compound for the regulation of vectorial ion channels” (APEPTICO Forschung und Entwicklung GmbH, priority 2010, dated 2014).
Non-standard residues stand in square brackets, D forms with d. Residues, ends and D or L forms follow the SMILES beside them. Ahp = NCCCCCCC(=O)O

Assays:
[1] = biological target: T1, epithelial sodium channels (Homo sapiens, UniProt P37088+P51168+P51170); assay: Patch-clamp measurement, whole cell configuration, amiloride-sensitive sodium current in A549 cells; assay type: cell-based; conditions: for Activity in comparison to a peptide SEQ ID NO: 10 CGQRETPEGAEKPWYC ("TIP-Peptid", Lucas et al. Science 1994 also WO00/09149): whole cell patch-clamp, A549 cells, amiloride-sensitive sodium current, relative to TIP peptide SEQ ID NO: 10
T1 construct: endogenous in cells; host or cells: A549 human lung epithelial cells (ATTC No. CCL-185)
T1 sequence (P51170 whole entry): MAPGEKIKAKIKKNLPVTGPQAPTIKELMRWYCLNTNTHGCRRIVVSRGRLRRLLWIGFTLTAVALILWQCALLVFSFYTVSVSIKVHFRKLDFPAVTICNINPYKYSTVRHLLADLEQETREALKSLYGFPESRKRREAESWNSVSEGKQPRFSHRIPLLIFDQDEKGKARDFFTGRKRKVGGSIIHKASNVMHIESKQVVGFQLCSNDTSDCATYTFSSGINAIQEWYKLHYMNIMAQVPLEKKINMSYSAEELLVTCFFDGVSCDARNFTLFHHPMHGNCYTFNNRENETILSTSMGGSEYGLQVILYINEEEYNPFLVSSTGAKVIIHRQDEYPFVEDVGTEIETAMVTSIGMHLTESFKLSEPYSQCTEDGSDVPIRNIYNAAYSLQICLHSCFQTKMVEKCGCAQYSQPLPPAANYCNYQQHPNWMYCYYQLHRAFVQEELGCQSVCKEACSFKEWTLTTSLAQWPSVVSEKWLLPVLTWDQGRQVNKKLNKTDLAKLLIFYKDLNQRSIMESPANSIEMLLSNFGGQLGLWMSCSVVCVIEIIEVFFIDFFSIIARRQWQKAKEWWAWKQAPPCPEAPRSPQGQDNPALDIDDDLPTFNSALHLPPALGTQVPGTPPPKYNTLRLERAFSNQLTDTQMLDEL
T1 sequence (P37088 whole entry): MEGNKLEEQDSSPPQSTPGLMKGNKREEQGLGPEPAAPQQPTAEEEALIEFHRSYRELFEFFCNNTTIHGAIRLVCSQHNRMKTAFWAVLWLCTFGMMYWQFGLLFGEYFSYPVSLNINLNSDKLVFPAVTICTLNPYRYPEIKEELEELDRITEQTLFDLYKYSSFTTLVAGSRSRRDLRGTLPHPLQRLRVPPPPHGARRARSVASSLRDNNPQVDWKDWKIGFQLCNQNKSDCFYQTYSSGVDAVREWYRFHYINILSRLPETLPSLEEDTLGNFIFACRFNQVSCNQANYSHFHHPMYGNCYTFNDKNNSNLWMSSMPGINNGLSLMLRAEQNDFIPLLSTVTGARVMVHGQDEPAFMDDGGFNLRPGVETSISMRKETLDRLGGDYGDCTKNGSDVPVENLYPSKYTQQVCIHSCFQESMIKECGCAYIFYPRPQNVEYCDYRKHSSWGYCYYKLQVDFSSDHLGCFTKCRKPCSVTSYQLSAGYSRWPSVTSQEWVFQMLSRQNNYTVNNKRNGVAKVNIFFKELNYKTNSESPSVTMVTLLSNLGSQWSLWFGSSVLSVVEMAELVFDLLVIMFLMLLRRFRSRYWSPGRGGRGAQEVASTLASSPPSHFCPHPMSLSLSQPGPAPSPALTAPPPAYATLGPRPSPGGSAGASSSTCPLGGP
T1 sequence (P51168 whole entry): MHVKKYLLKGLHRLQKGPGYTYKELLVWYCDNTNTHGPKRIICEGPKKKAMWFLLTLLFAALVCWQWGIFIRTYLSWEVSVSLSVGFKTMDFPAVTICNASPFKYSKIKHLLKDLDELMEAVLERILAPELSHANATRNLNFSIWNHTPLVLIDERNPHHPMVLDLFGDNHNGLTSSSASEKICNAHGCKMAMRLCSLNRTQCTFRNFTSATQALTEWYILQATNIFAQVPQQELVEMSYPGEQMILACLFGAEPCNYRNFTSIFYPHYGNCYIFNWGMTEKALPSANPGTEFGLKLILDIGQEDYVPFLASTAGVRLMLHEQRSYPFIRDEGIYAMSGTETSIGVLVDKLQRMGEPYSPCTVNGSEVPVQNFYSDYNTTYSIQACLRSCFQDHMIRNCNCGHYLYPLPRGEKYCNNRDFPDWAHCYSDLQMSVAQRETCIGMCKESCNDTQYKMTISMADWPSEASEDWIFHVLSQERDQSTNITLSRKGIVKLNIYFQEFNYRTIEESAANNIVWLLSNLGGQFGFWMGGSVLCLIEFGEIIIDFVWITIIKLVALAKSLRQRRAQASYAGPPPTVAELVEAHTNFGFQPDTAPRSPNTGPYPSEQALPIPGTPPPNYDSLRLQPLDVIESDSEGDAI
From the text: The detection of a vectorial regulation of ion channels by a compound may be effected according to a method common in laboratories, for example, according to Clunes M. T. et al., J. Physiolo. (2004) 557.3: 809-819), via patch-clamp experiments. For patch-clamp examinations of ion channels, a glass cannula is stretched thin and filled with a neutral buffer solution. The glass cannula (patch-clamp pipette) is carefully pressed onto an intact epithelial cell. A piece of membrane is located below the pipette. An electrical resistance is thereby produced between the interior of the pipette and the external solution. An electrode attached to a sensitive amplifier dips into the pipette solution.
A regulation of the vectorial epithelial ion channels is detected via a change in the current intensity with a constant voltage.
(§1) The electrophysiological experiments were performed on human A549 cells (ATTC No. CCL-185). A549 cells are human lung epithelial cells which are involved in the diffusion of water and electrolytes in the lungs. The cells were suspended in RPMI-1640 medium (Sigma-Aldrich, product number R6504) with 1% penicillin/streptomycin and 10% fetal calf serum, transferred into plastic cell culture vessels and cultivated in an incubator with 95% air and 5% CO2 at 37° C. The medium was changed 2 to 3 times per week. The cells double within approx. 22 hours, and a cell concentration of more than 7×10^4 cells per cm^2 was not exceeded.
For the patch-clamp experiments, the cells were transferred onto small glass plates.
Macroscopic currents were discharged from A549 cells in the “whole cell” configuration of the “patch-clamp” technique (Hamill et al, Pflugers Arch. 1981, 391(2):85-100, 1981). For the current dissipations in the “whole cell” configuration, the following bath and electrode solutions were used:
Bath solution: 135 mM sodium methanesulfonate, 10 mM NaCl, 2.7 mM KCl, 1.8 mM CaCl2, 2 mM MgCl2, 5.5 mM glucose, and 10 mM HEPES, pH 7.4.
Electrode solution: 120 mM potassium methanesulfonate, 15 mM KCl, 6 mM NaCl, 1 mM Mg2ATP, 2 mM Na3ATP, 10 mM HEPES, and 0.5 mM EGTA (pH 7.2).
Cover slips with the cells cultivated thereon were transferred into a test bath with a capacity of 1 ml, fixed on the microscope table (Axiovert 100, 400-fold magnification), and the cells were superfused with the above-described bath solution. Thereupon, the current was discharged from a suitable cell (which adheres to the cover slip). For this purpose, a microelectrode filled with an electrolyte solution (glass capillary with a defined, heat-polished tip opening of about 1-3 μm, corresponding to a resistance of the electrode tip of […]) was placed on the cell and the membrane was sucked in so that a “Gigaohm seal” was formed between the membrane and the electrode in order to minimize the leakage current. In the “whole cell” configuration, the membrane was penetrated beneath the electrode tip so that the current flowing through all ion channels of the cell could be measured. Upon obtaining a Gigaohm seal, a defined membrane retaining potential was applied via a pre-amplifier (CV-4 Headstage, Axon Instruments) and an amplifier (Axopatch 1 D, Axon Instr.) and the current thereby flowing through the ion channels was measured.
The pulse protocol consisted of a hyperpolarization of the cell membrane to −100 mV for 5 s and a subsequent gradual depolarization to +100 mV in 20 mV steps.
This protocol was performed before (control) and after the addition of ring-shaped organic molecules. The current dissipations thus obtained were stored and analyzed by means of the program PCLAMP 6.0. For this purpose, the current dissipations obtained in the presence of amiloride were subtracted from the currents recorded earlier so that the amiloride-sensitive sodium current through the epithelial sodium channels could be determined.

human A549 cells = assay: Microscopic observation of A549 cells after addition of compounds; assay type: cell-based; conditions: microscopic observation after addition of compound
Procedure: as §1
The cells were microscopically observed.

LSPGQRETPEGAEAKPWYE (peptide published in WO 2009/073909) [SEQ ID NO: 12, known peptide from WO2009/073909 (PCT AT2008 448), reference compound]
Activity in comparison to a peptide SEQ ID NO: 10 CGQRETPEGAEKPWYC ("TIP-Peptid", Lucas et al. Science 1994 also WO00/09149) [1]: 60%

C[C@@H]1NC(=O)CNC(=O)[C@H](CCC(=O)O)NC(=O)[C@@H]2CCCN2C(=O)[C@H]([C@@H](C)O)NC(=O)[C@H](CCC(=O)O)NC(=O)[C@H](CCCNC(=N)N)NC(=O)[C@H](CCC(N)=O)NC(=O)CNC(=O)CCCCNC(=O)CNC(=O)[C@H](Cc2ccc(O)cc2)NC(=O)[C@H](Cc2c[nH]c3ccccc23)NC(=O)[C@@H]2CCCN2C(=O)[C@H](CCCCN)NC(=O)[C@H](C)NC(=O)[C@H](CCC(=O)O)NC1=O [SEQ ID NO: 3, [5-amino-pentanoic acid-GQRETPEGAEAKPWYG] (cyclo 1-17)]
changes in morphology or cell growth (human A549 cells): did not produce any changes in morphology or cell growth
death of cells (human A549 cells): did not result in the death of cells

C[C@@H]1NC(=O)CNC(=O)[C@H](CCC(=O)O)NC(=O)[C@@H]2CCCN2C(=O)[C@H]([C@@H](C)O)NC(=O)[C@H](CCC(=O)O)NC(=O)[C@H](CCCNC(=N)N)NC(=O)[C@H](CCC(N)=O)NC(=O)CNC(=O)CCCCCCNC(=O)[C@H](Cc2ccc(O)cc2)NC(=O)[C@H](Cc2c[nH]c3ccccc23)NC(=O)[C@@H]2CCCN2C(=O)[C@H](CCCCN)NC(=O)[C@H](C)NC(=O)[C@H](CCC(=O)O)NC1=O [SEQ ID NO: 7, [7-amino-heptanoic acid-GQRETPEGAEAKPWY] (cyclo 1-16)] (cyclo(AEAKPWY[Ahp]GQRETPEG))
changes in morphology or cell growth (human A549 cells): did not produce any changes in morphology or cell growth
death of cells (human A549 cells): did not result in the death of cells

C[C@@H]1NC(=O)CNC(=O)[C@H](CCC(=O)O)NC(=O)[C@@H]2CCCN2C(=O)[C@H]([C@@H](C)O)NC(=O)[C@H](CCC(=O)O)NC(=O)[C@H](CCCNC(=N)N)NC(=O)[C@H](CCC(N)=O)NC(=O)CNC(=O)CCNC(=O)CC[C@@H](C(=O)O)NC(=O)[C@H](Cc2ccc(O)cc2)NC(=O)[C@H](Cc2c[nH]c3ccccc23)NC(=O)[C@@H]2CCCN2C(=O)[C@H](CCCCN)NC(=O)[C@H](C)NC(=O)[C@H](CCC(=O)O)NC1=O [SEQ ID NO: 6, [3-amino-propanoic acid-GQRETPEGAEAKPWYE-OH] (cyclo 1-Eδ17)]
changes in morphology or cell growth (human A549 cells): did not produce any changes in morphology or cell growth
death of cells (human A549 cells): did not result in the death of cells
Activity in comparison to a peptide SEQ ID NO: 10 CGQRETPEGAEKPWYC ("TIP-Peptid", Lucas et al. Science 1994 also WO00/09149) [1]: 150%

C[C@@H]1NC(=O)CNC(=O)[C@H](CCC(=O)O)NC(=O)[C@@H]2CCCN2C(=O)[C@H]([C@@H](C)O)NC(=O)[C@H](CCC(=O)O)NC(=O)[C@H](CCCNC(=N)N)NC(=O)[C@H](CCC(N)=O)NC(=O)CNC(=O)[C@@H](N)CCCCNC(=O)CNC(=O)[C@H](Cc2ccc(O)cc2)NC(=O)[C@H](Cc2c[nH]c3ccccc23)NC(=O)[C@@H]2CCCN2C(=O)[C@H](CCCCN)NC(=O)[C@H](C)NC(=O)[C@H](CCC(=O)O)NC1=O [SEQ ID NO: 1, [KGQRETPEGAEAKPWYG] (cyclo Kepsilon1-G17)]
changes in morphology or cell growth (human A549 cells): did not produce any changes in morphology or cell growth
death of cells (human A549 cells): did not result in the death of cells
Activity in comparison to a peptide SEQ ID NO: 10 CGQRETPEGAEKPWYC ("TIP-Peptid", Lucas et al. Science 1994 also WO00/09149) [1]: 150%

C[C@@H]1NC(=O)CNC(=O)[C@H](CCC(=O)O)NC(=O)[C@@H]2CCCN2C(=O)[C@H]([C@@H](C)O)NC(=O)[C@H](CCC(=O)O)NC(=O)[C@H](CCCNC(=N)N)NC(=O)[C@H](CCC(N)=O)NC(=O)CNC(=O)[C@@H](N)CCCNC(=O)CNC(=O)[C@H](Cc2ccc(O)cc2)NC(=O)[C@H](Cc2c[nH]c3ccccc23)NC(=O)[C@@H]2CCCN2C(=O)[C@H](CCCCN)NC(=O)[C@H](C)NC(=O)[C@H](CCC(=O)O)NC1=O [SEQ ID NO: 2, [ornithine-GQRETPEGAEAKPWYG] (cyclo Orn-delta1-G17)]
changes in morphology or cell growth (human A549 cells): did not produce any changes in morphology or cell growth
death of cells (human A549 cells): did not result in the death of cells
Activity in comparison to a peptide SEQ ID NO: 10 CGQRETPEGAEKPWYC ("TIP-Peptid", Lucas et al. Science 1994 also WO00/09149) [1]: 115%

C[C@@H]1NC(=O)CNC(=O)[C@H](CCC(=O)O)NC(=O)[C@@H]2CCCN2C(=O)[C@H]([C@@H](C)O)NC(=O)[C@H](CCC(=O)O)NC(=O)[C@H](CCCNC(=N)N)NC(=O)[C@H](CCC(N)=O)NC(=O)CNC(=O)CCCNC(=O)C[C@@H](C(=O)O)NC(=O)[C@H](Cc2ccc(O)cc2)NC(=O)[C@H](Cc2c[nH]c3ccccc23)NC(=O)[C@@H]2CCCN2C(=O)[C@H](CCCCN)NC(=O)[C@H](C)NC(=O)[C@H](CCC(=O)O)NC1=O [SEQ ID NO: 5, [gamma-aminobutyric acid-GQRETPEGAEAKPWYD-OH] (cyclo 1-Dγ17)]
changes in morphology or cell growth (human A549 cells): did not produce any changes in morphology or cell growth
death of cells (human A549 cells): did not result in the death of cells
Activity in comparison to a peptide SEQ ID NO: 10 CGQRETPEGAEKPWYC ("TIP-Peptid", Lucas et al. Science 1994 also WO00/09149) [1]: 160%

[6-amino-hexanoic acid-GQRETPEGAEAKPWYG] (cyclo 1-17) [SEQ ID NO: 8]
changes in morphology or cell growth (human A549 cells): did not produce any changes in morphology or cell growth
death of cells (human A549 cells): did not result in the death of cells
activation of the vectorial ionic current compared with known peptides SEQ ID NO: 10, 11 and 12 ([1]; patch-clamp, comparison in words): significantly higher activations of the vectorial ionic current
Activity in comparison to a peptide SEQ ID NO: 10 CGQRETPEGAEKPWYC ("TIP-Peptid", Lucas et al. Science 1994 also WO00/09149) [1]: 150%

C[C@@H]1NC(=O)CNC(=O)[C@H](CCC(=O)O)NC(=O)[C@@H]2CCCN2C(=O)[C@H]([C@@H](C)O)NC(=O)[C@H](CCC(=O)O)NC(=O)[C@H](CCCNC(=N)N)NC(=O)[C@H](CCC(N)=O)NC(=O)CNC(=O)CCCNC(=O)CNC(=O)[C@H](Cc2ccc(O)cc2)NC(=O)[C@H](Cc2c[nH]c3ccccc23)NC(=O)[C@@H]2CCCN2C(=O)[C@H](CCCCN)NC(=O)[C@H](C)NC(=O)[C@H](CCC(=O)O)NC1=O [SEQ ID NO: 4, [gamma-aminobutyric acid-GQRETPEGAEAKPWYG] (cyclo 1-17)]
changes in morphology or cell growth (human A549 cells): did not produce any changes in morphology or cell growth
death of cells (human A549 cells): did not result in the death of cells

CGTKPIELGPDEPKAVC (peptide published in EP 2 009 023) [SEQ ID NO: 11, known peptide for controlling fluid content in the alveoli, from EP 2 009 023, reference compound]
Activity in comparison to a peptide SEQ ID NO: 10 CGQRETPEGAEKPWYC ("TIP-Peptid", Lucas et al. Science 1994 also WO00/09149) [1]: 80%
